Source: US8399681B2, “Substituted aminothiazolone indazoles as estrogen related receptor-alpha modulators” (Janssen Pharmaceutica NV, priority 2009, dated 2013)

Biological target: T1, ERR1 (also known as ERR-α or ERR-1) (Homo sapiens, UniProt P11474)
T1 sequence (P11474 193-421 limits assumed): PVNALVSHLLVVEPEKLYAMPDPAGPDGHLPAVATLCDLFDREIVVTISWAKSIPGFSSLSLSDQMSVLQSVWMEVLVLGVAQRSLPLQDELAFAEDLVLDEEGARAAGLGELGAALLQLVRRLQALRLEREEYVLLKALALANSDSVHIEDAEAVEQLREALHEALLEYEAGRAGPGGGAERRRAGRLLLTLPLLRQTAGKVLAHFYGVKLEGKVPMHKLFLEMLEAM
Assay: TR-FRET assay (disruption of co-activator peptide binding)
Type: biochemical
Details: 6His-tagged ERR1 LBD, GST-hSRC2 co-activator polypeptide; average of 3 independent experiments
How it was run: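 Compound-induced loss of co-activator recruitment, read by time-resolved FRET (excitation 340 nm; 615 and 665 nm emission) after 4-18 h at 25 °C. Reagents: 6 nM ERR1LBD, 6 nM GST-SRC-2, 30 nM Eu cryptate, 7.5 nM XL665, pH 8 Tris buffer. Values: hyperbolic fits averaged over 3 independent runs.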

EC50	SMILES
23 nM	C=C(C)c1ccc(Cn2ncc3cc(/C=C4\SC(N5CCN(C)CC5)=NC4=O)ccc32)c(C(F)(F)F)c1 [Example 30, 5-[1-(4-Isopropenyl-2-trifluoromethyl-benzyl)-1H-indazol-5-ylmethylene]-2-(4-methyl-piperazin-1-yl)-thiazol-4-one]
3 nM	O=C1N=C(N2CCO[C@H](CO)C2)S/C1=C\c1ccc2c(c1)c(Cl)nn2Cc1ccc(Cl)cc1C(F)(F)F [Example 185, 5-[3-Chloro-1-(4-chloro-2-trifluoromethyl-benzyl)-1H-indazol-5-ylmethylene]-2-(2-(S)-hydroxymethyl-morpholin-4-yl)-thiazol-4-one]
28 nM	CC[C@H]1CNCCN1C1=NC(=O)/C(=C/c2ccc3c(cnn3Cc3ccc(Cl)cc3C(F)(F)F)c2)S1 [Example 255]
58.1 nM	O=C1N=C(N2CCC(C(=O)NS(=O)(=O)N3CCCC3)CC2)S/C1=C\c1ccc2c(cnn2Cc2ccc(Cl)cc2C(F)(F)F)c1 [Example 174, Pyrrolidine-1-sulfonic acid (1-{5-[1-(4-chloro-2-trifluoromethyl-benzyl)-1H-indazol-5-ylmethylene]-4-oxo-4,5-dihydro-thiazol-2-yl}-piperidine-4-carbonyl)-amide]
68 nM	CN1CCN(C2=NC(=O)/C(=C/c3ccc4c(cnn4Cc4ccc(Cl)cc4Cl)c3)S2)CC1 [Example 25, 5-[1-(2,4-Dichloro-benzyl)-1H-indazol-5-ylmethylene]-2-(4-methyl-piperazin-1-yl)-thiazol-4-one]
32 nM	COC(=O)COC1CCN(C2=NC(=O)/C(=C/c3ccc4c(cnn4Cc4ccc(Cl)cc4C(F)(F)F)c3)S2)CC1 [Example 130]
9 nM	Cc1nn(Cc2ccc(Cl)cc2C(F)(F)F)c2ccc(/C=C3\SC(N4CCN[C@H](CO)C4)=NC3=O)cc12 [Example 277, 5-({1-[4-Chloro-2-(trifluoromethyl)benzyl]-3-methyl-1H-indazol-5-yl}methylidene)-2-[(3S)-3-(hydroxymethyl)piperazin-1-yl]-1,3-thiazol-4(5H)-one]
5.7 nM	O=C1N=C(N2C[C@@H]3C[C@H]2CN3CCO)S/C1=C\c1ccc2c(cnn2Cc2ccc(Cl)cc2C(F)(F)F)c1 [Example 80, 5-[1-(4-Chloro-2-trifluoromethyl-benzyl)-1H-indazol-5-ylmethylene]-2-[5-(2-hydroxy-ethyl)-2S,5S-diaza-bicyclo[2.2.1]hept-2-yl]-thiazol-4-one]
38 nM	C[C@@H]1CN(C2=NC(=O)/C(=C/c3ccc4c(cnn4Cc4ccc(C(C)(C)O)cc4C(F)(F)F)c3)S2)C[C@H](C)N1 [Example 243, 2-((3R,5S)-3,5-Dimethylpiperazin-1-yl)-5-({1-[4-(1-hydroxy-1-methylethyl)-2-(trifluoromethyl)benzyl]-1H-indazol-5-yl}methylidene)-1,3-thiazol-4(5H)-one]
28 nM	O=C1N=C(N2CCN[C@H](CO)C2)S/C1=C\c1ccc2c(cnn2Cc2ccc(Cl)cc2C(F)(F)F)c1 [Example 206, 5-({1-[4-Chloro-2-(trifluoromethyl)benzyl]-1H-indazol-5-yl}methylidene)-2-[3-(S)-(hydroxymethyl)piperazin-1-yl]-1,3-thiazol-4(5H)-one]
11.4 nM	CN1CCN(C2=NC(=O)/C(=C/c3ccc4c(cnn4Cc4ccc(O)cc4C(F)(F)F)c3)S2)CC1 [Compound 22, 5-[1-(4-Hydroxy-2-trifluoromethyl-benzyl)-1H-indazol-5-ylmethylene]-2-(4-methyl-piperazin-1-yl)-thiazol-4-one]
8 nM	CNC1CN(C2=NC(=O)/C(=C/c3ccc4c(cnn4Cc4ccc(Cl)cc4C(F)(F)F)c3)S2)C1 [Example 270, 5-({1-[4-Chloro-2-(trifluoromethyl)benzyl]-1H-indazol-5-yl}methylidene)-2-[3-(methylamino)azetidin-1-yl]-1,3-thiazol-4(5H)-one]
24 nM	COC(=O)CCNC(=O)C1CN(C2=NC(=O)/C(=C/c3ccc4c(cnn4Cc4ccc(Cl)cc4C(F)(F)F)c3)S2)C1 [Example 152, 3-[(1-{5-[1-(4-Chloro-2-trifluoromethyl-benzyl)-1H-indazol-5-ylmethylene]-4-oxo-4,5-dihydro-thiazol-2-yl}-azetidine-3-carbonyl)-amino]-propionic acid methyl ester]
26.2 nM	NC1(C(=O)O)CCN(C2=NC(=O)/C(=C/c3ccc4c(cnn4Cc4ccc(Cl)cc4C(F)(F)F)c3)S2)CC1 [Example 154, 4-Amino-1-{5-[1-(4-chloro-2-trifluoromethyl-benzyl)-1H-indazol-5-ylmethylene]-4-oxo-4,5-dihydro-thiazol-2-yl}-piperidine-4-carboxylic acid]
21 nM	CCN1CCN(C2=NC(=O)/C(=C/c3ccc4c(cnn4Cc4ccc(C(F)(F)F)cc4C(F)(F)F)c3)S2)CC1 [Example 67, 5-[1-(2,4-Bis-trifluoromethyl-benzyl)-1H-indazol-5-ylmethylene]-2-(4-ethyl-piperazin-1-yl)-thiazol-4-one]
15 nM	CNC(=O)[C@H]1CN(C2=NC(=O)/C(=C/c3ccc4c(cnn4Cc4ccc(C(F)(F)F)cc4C(F)(F)F)c3)S2)CCN1 [Example 227, (2R)-4-[5-({1-[2,4-Bis(trifluoromethyl)benzyl]-1H-indazol-5-yl}methylidene)-4-oxo-4,5-dihydro-1,3-thiazol-2-yl]-N-methylpiperazine-2-carboxamide]
13 nM	N[C@@H]1CCCN(C2=NC(=O)/C(=C/c3ccc4c(cnn4Cc4ccc(C(F)(F)F)cc4C(F)(F)F)c3)S2)C1 [Example 53, 2-(3-(R)-Amino-piperidin-1-yl)-5-[1-(2,4-bis-trifluoromethyl-benzyl)-1H-indazol-5-ylmethylene]-thiazol-4-one]
15 nM	COc1ccc(Cn2ncc3cc(/C=C4\SC(N5CCC(C(=O)O)CC5)=NC4=O)ccc32)c(C(F)(F)F)c1 [Example 41, 1-{5-[1-(4-M ethoxy-2-trifluoromethyl-benzyl)-1H-indazol-5-ylmethylene]-4-oxo-4,5-dihydro-thiazol-2-yl}-piperidine-4-carboxylic acid]
3.6 nM	O=C1N=C(N2CCC(C(=O)O)CC2)S/C1=C\c1ccc2c(c1)c(I)nn2Cc1ccc(C(F)(F)F)cc1C(F)(F)F [Example 191, 1-[5-({1-[2,4-Bis(trifluoromethyl)benzyl]-3-iodo-1H-indazol-5-yl}methylidene)-4-oxo-4,5-dihydro-1,3-thiazol-2-yl]piperidine-4-carboxylic acid]
25.7 nM	O=C1N=C(N2CCNCC(O)C2)S/C1=C\c1ccc2c(cnn2Cc2ccc(C(F)(F)F)cc2C(F)(F)F)c1 (centres unmarked) [Example 151, 5-[1-(2,4-Bis-trifluoromethyl-benzyl)-1H-indazol-5-ylmethylene]-2-(6-hydroxy-[1,4]diazepan-1-yl)thiazol-4-one]
64 nM	CC(C)N[C@@H]1C[C@H](CO)N(C2=NC(=O)/C(=C/c3ccc4c(cnn4Cc4ccc(C(F)(F)F)cc4C(F)(F)F)c3)S2)C1 [Example 262]
5 nM	CN1CCN(C2=NC(=O)/C(=C/c3ccc4c(cnn4Cc4ccc(C(F)(F)F)cc4C(F)(F)F)c3)S2)[C@@H](CO)C1 [Example 253, 5-({1-[2,4-Bis(trifluoromethyl)benzyl]-1H-indazol-5-yl}methylidene)-2-[(2R)-2-(hydroxymethyl)-4-methylpiperazin-1-yl]-1,3-thiazol-4(5H)-one]
56.2 nM	CC1(C(=O)O)CCN(C2=NC(=O)/C(=C/c3ccc4c(cnn4Cc4ccc(C(F)(F)F)cc4C(F)(F)F)c3)S2)CC1 [Example 74, 1-{5-[1-(2,4-Bis-trifluoromethyl-benzyl)-1H-indazol-5-ylmethylene]-4-oxo-4,5-dihydro-thiazol-2-yl}-4-methyl-piperidine-4-carboxylic acid]
21 nM	O=C1N=C(N2CCOCC2)S/C1=C\c1ccc2c(cnn2Cc2ccc(C(F)(F)F)cc2C(F)(F)F)c1 [Compound 3, 5-[1-(2,4-Bis-trifluoromethyl-benzyl)-1H-indazol-5-ylmethylene]-2-morpholin-4-yl-thiazol-4-one]
26 nM	CN(C)CC1(O)CCN(C2=NC(=O)/C(=C/c3ccc4c(cnn4Cc4ccc(Cl)cc4C(F)(F)F)c3)S2)CC1 [Example 163, 5-[1-(4-Chloro-2-trifluoromethyl-benzyl)-1H-indazol-5-ylmethylene]-2-(4-dimethylaminomethyl-4-hydroxy-piperidin-1-yl)-thiazol-4-one]
9.6 nM	O=C1N=C(N2CC(O)C2)S/C1=C\c1ccc2c(cnn2Cc2ccc(Cl)cc2C(F)(F)F)c1 [Example 68, 5-[1-(4-Chloro-2-trifluoromethyl-benzyl)-1H-indazol-5-ylmethylene]-2-(3-hydroxy-azetidin-1-yl)-thiazol-4-one]
172 nM	CCOCCN1CCN(C2=NC(=O)/C(=C/c3ccc4c(cnn4Cc4ccc(C(F)(F)F)cc4C(F)(F)F)c3)S2)CC1 [Example 73, 5-[1-(2,4-Bis-trifluoromethyl-benzyl)-1H-indazol-5-ylmethylene]-2-[4-(2-ethoxy-ethyl)-piperazin-1-yl]-thiazol-4-one]
11 nM	CC(C)(C)OC(=O)N1CCN(C2=NC(=O)/C(=C/c3ccc4c(c3)c(I)nn4Cc3ccc(C(F)(F)F)cc3C(F)(F)F)S2)C[C@@H]1CO [Example 279, tert-Butyl (2R)-4-[5-({1-[2,4-bis(trifluoromethyl)benzyl]-3-iodo-1H-indazol-5-yl}methylidene)-4-oxo-4,5-dihydro-1,3-thiazol-2-yl]-2-(hydroxymethyl)piperazine-1-carboxylate]
24 nM	O=C1N=C(N2CCCO2)S/C1=C\c1ccc2c(cnn2Cc2ccc(Cl)cc2C(F)(F)F)c1 [Example 126, 5-[1-(4-Chloro-2-trifluoromethyl-benzyl)-1H-indazol-5-ylmethylene]-2-isoxazolidin-2-yl-thiazol-4-one]
